Experimental data: patent US20250361230A1, “LATS Inhibitors and Uses Thereof” (The USA, as Represented by the Secretary, Dept. of Heath …, priority 2022, published 2025)

Biological target: T1, AKT Kinase-NanoLuc fusion in HEK-293 cells (Homo sapiens, UniProt P31749)
T1 construct: host or cells: HEK-293
Test: NanoBRET target engagement assay in transfected HEK-293 cells, AKT
Format: cell-based
Details: cellular; read-out: AKT (Cellular) IC50
Procedure, shortened: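 HEK-293 cells transiently transfected with kinase-NanoLuc fusion plasmid for 22-24 h, then incubated with compound and NanoBRET tracer for 1 hour at 37° C. After substrate plus extracellular NanoLuc inhibitor addition, 460 and 600 nm emissions read; no-tracer-corrected BRET ratio used to derive IC50 values.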

T1 sequence (P31749 whole entry, the tested form may be a part): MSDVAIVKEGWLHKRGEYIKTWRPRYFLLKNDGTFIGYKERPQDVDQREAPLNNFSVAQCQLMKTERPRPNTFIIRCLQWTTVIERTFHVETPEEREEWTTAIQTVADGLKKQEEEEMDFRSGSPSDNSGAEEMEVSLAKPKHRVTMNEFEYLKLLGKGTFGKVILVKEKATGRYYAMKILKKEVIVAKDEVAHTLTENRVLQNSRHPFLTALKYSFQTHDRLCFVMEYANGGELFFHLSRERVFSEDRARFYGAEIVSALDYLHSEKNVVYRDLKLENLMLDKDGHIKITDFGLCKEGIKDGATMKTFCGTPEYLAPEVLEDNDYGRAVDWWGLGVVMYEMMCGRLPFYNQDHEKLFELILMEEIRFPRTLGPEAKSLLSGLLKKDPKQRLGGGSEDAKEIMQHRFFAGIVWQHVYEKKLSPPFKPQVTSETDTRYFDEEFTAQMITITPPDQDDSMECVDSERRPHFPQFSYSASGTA

Cc1cc(-c2ccnc3[nH]cc(C#N)c23)ccc1[C@@]1(O)[C@H](C)CN(C2CCS(=O)(=O)CC2)C[C@@H]1C [Compound 2003, 4-(4-((3S,4s,5R)-1-(1,1-dioxidotetrahydro-2H-thiopyran-4-yl)-4-hydroxy-3,5-dimethylpiperidin-4-yl)-3-methylphenyl)-1H-pyrrolo[2,3-b]pyridine-3-carbonitrile]
IC50: 28.5 µM
